Assay results: the NIST ThermoML archive (doi:10.1021/je300487n)

Tests used:
[1] = for viscosity / mass density: 101.33 kPa, Liquid; for viscosity: Concentric cylinders viscometry; for mass density: Vibrating tube method; for surface tension liquid-gas: Drop volume
[2] = refractive index (Na D-line) (dimensionless); conditions: 101.33 kPa, Liquid, Standard Abbe refractometry

CC(=O)[O-].CCCC[N+]1(C)CCCC1 [1-butyl-1-methylpyrrolidinium acetate]
Conditions | mass density, [1] [kg/m3] | refractive index, [2] | surface tension liquid-gas, [1] [mN/m] | viscosity, [1] [mPa·s]
283.15 K | – | 1.47263 | – | –
288.15 K | – | 1.47144 | – | –
293.15 K | – | 1.47075 | – | –
298.15 K | 1021.2 | 1.46998 | – | 106.63
298.3 K | – | – | 37.4 | –
303.15 K | 1018.1 | 1.46868 | – | 79.92
307.9 K | – | – | 36.8 | –
308.15 K | 1015.1 | 1.46736 | – | 61.34
313.15 K | 1012.1 | 1.46603 | – | 48.45
318 K | – | – | 36.4 | –
318.15 K | 1009.2 | 1.46461 | – | 38.34
323.15 K | 1006.2 | 1.4632 | – | 31.1
328.15 K | 1003.3 | 1.46178 | – | 25.61
328.4 K | – | – | 36.1 | –
333.15 K | 1000.4 | 1.46042 | – | 21.64
338.15 K | 997.8 | 1.459 | – | 18.05
338.5 K | – | – | 35.6 | –
343.15 K | 994.9 | 1.45755 | – | 15.42
343.6 K | – | – | 34.4 | –
348.15 K | 992 | 1.45619 | – | 13.3
353.15 K | 989.2 | 1.45479 | – | 11.84
358.15 K | 986.3 | – | – | 10.16
363.15 K | 983.5 | – | – | 8.983

CC(=O)[O-].CCCCn1cc[n+](C)c1 [1-butyl-3-methylimidazolium acetate]
Conditions | mass density, [1] [kg/m3] | refractive index, [2] | surface tension liquid-gas, [1] [mN/m] | viscosity, [1] [mPa·s]
283.15 K | 1062.2 | 1.49269 | – | 1037.2
288.15 K | 1058.9 | 1.49158 | – | 658.84
293.15 K | 1055.5 | 1.49021 | – | 429.11
298 K | – | – | 36.4 | –
298.15 K | 1052.3 | 1.4889 | – | 297.39
303.15 K | 1049.2 | 1.48725 | – | 209.65
307.8 K | – | – | 35.9 | –
308.15 K | 1046.1 | 1.4858 | – | 152.07
313.15 K | 1043 | 1.48438 | – | 112.23
318 K | – | – | 35.5 | –
318.15 K | 1040 | 1.48297 | – | 86.07
323.15 K | 1037 | 1.4806 | – | 66.82
328.15 K | 1034 | 1.47915 | – | 52.84
328.6 K | – | – | 35.1 | –
333.15 K | 1031 | 1.4777 | – | 42.67
338.15 K | 1028 | 1.47624 | – | 34.66
339 K | – | – | 34.7 | –
343.15 K | 1025 | 1.47463 | – | 28.69
348.15 K | 1022.1 | 1.47318 | – | 24.04
353.15 K | 1019.1 | 1.4718 | – | 20.76
358.15 K | 1016.2 | – | – | 17.45
363.15 K | 1013.3 | – | – | 15.08
